Data on six molecules can be found in US12473339B2, “Acylated glucagon analogues” (Zealand Pharma A/S, priority 2013, dated 2025).

This assay has as its target T1, human glucagon-like peptide 1 receptor (GLP-1R) (Homo sapiens, UniProt P43220).
T1 construct: expressed in transfected cells
As to the kind of experiment: GLP-1 receptor efficacy assay (cAMP AlphaScreen, CHO cells). Format: cell-based. The following applies: for Ratio GLP-1/Glucagon: EC50 [GLP-1R] / EC50 [Glucagon-R], human receptors in CHO-K1. The source says: The cDNA encoding either the human glucagon receptor (Glucagon-R) (primary accession number P47871) or the human glucagon-like peptide 1 receptor (GLP-1R) (primary accession number P43220) were synthesized and cloned into a mammalian expression vector containing a Zeocin resistance marker.
The mammalian expression vectors encoding the Glucagon-R or the GLP-1-R were transfected into Chinese hamster ovary (CHO) cells by the Attractene method. Stably expressing clones were obtained by Zeocin selection (250 μg/mL) upon limited dilution of cells resistant to the selection pressure. Glucagon-R and GLP-1-R cell clones expressing were picked, propagated and tested in the Glucagon-R and GLP-1-R efficacy assays as described below. One Glucagon-R expressing clone and one GLP-1-R expressing clone were chosen for compound profiling.
CHO cells expressing the human Glucagon-R, or human GLP-1-R were seeded 24 hours prior to the assay at 30,000 cells per well in 96-well microtiter plates in culture in 100 μl growth medium. On the day of analysis, growth medium was removed and the cells were washed once with 200 μl of assay buffer (Krebs-Ringer-buffer—KRBH). The buffer was removed and the cells were incubated for 15 min at room temperature in 10 μl KRBH (KRBH+10 mM HEPES, 5 mM NaHCO3, 0.1% (V/V) BSA) with 0.1 mM IBMX in deionized water containing increasing concentrations of test peptides. The reaction was stopped by the addition of lysis buffer (0.1% w/v BSA, 5 mM HEPES, 0.3% v/v Tween-20). After cell lysis for 10 min at room temperature, lysates were transferred to 384-well plates and 10 μl of acceptor/donorbead mixture as contained in the AlphaScreen™ cAMP Functional Assay Kit was added. After one hour of incubation at room temperature in the dark, the cAMP content was determined applying the AlphaScreen™ cAMP Functional Assay Kit from Perkin-Elmer according to manufacturer instructions. EC50 and relative efficacies compared to reference compounds (glucagon and GLP-1) were calculated applying computer aided curve fitting. The GLP-1/glucagon ratio is calculated as defined earlier.

*1 amine or outer side, *2 acyl side, *3 side chain or, on linkers, in order; H or OH if unused. Where a SMILES comes first, the peptide text is derived from it. Side-chain parts run from the residue outwards. [ ]: non-standard residue; d: D form. The star is where a group is joined. C18 diacid = O=C(O)CCCCCCCCCCCCCCCCC(=O)*; γGlu = O=C(O)[C@H](CCC(=O)[*:2])N[*:1]; AEEA = NCCOCCOCC(=O)O; Aib = CC(C)(N)C(=O)O

T1 sequence (P43220 24-463): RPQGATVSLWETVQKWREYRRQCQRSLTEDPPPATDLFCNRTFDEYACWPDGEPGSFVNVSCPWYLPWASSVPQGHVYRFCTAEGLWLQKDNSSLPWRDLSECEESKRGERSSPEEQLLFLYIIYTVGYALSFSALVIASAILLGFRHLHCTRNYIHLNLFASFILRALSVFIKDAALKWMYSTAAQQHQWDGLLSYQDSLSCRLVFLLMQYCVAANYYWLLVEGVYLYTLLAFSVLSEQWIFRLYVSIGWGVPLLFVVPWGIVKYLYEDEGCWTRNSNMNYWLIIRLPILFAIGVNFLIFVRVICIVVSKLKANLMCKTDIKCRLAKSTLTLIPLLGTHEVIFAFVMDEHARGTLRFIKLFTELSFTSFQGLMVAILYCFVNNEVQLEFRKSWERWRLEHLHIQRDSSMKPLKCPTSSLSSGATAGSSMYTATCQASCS

On to `CC[C@H](C)[C@H](NC(=O)[C@H](Cc1ccccc1)NC(=O)[C@H](CC(=O)O)NC(=O)[C@H](CCCCN)NC(=O)[C@H](C)NC(=O)[C@H](C)NC(=O)[C@H](CCCNC(=N)N)NC(=O)[C@H](CCCCNC(=O)CNC(=O)CNC(=O)[C@H](CO)NC(=O)CNC(=O)[C@H](CO)NC(=O)CNC(=O)CC[C@H](NC(=O)CCCCCCCCCCCCCCCCC(=O)O)C(=O)O)NC(=O)[C@H](CCC(=O)O)NC(=O)[C@H](CC(C)C)NC(=O)[C@H](Cc1ccc(O)cc1)NC(=O)[C@H](CCCCN)NC(=O)[C@H](CO)NC(=O)[C@H](Cc1ccc(O)cc1)NC(=O)[C@H](CC(=O)O)NC(=O)[C@H](CO)NC(=O)[C@@H](NC(=O)[C@H](Cc1ccccc1)NC(=O)[C@@H](NC(=O)CNC(=O)[C@H](CCC(N)=O)NC(=O)C(C)(C)NC(=O)[C@@H](N)Cc1c[nH]cn1)[C@@H](C)O)[C@@H](C)O)C(=O)N[C@@H](CCC(=O)O)C(=O)N[C@@H](Cc1c[nH]c2ccccc12)C(=O)N[C@@H](CC(C)C)C(=O)N[C@@H](CCC(=O)O)C(=O)N[C@@H](CO)C(=O)N[C@@H](C)C(N)=O` [Compound 6, H-H-Aib-QGTFTSDYSKYLE-K([17-carboxy-heptadecanoyl]-isoGlu-GSGSGG)-RAAKDFIEWLESA-NH2], for which the “Ratio GLP-1/Glucagon” value is 3.25.

As for `CC[C@H](C)[C@H](NC(=O)[C@H](Cc1ccccc1)NC(=O)[C@H](CC(=O)O)NC(=O)[C@H](CCCCN)NC(=O)[C@H](C)NC(=O)[C@H](C)NC(=O)[C@H](CCCNC(=N)N)NC(=O)[C@H](CCCCNC(=O)CNC(=O)CNC(=O)[C@H](CO)NC(=O)CNC(=O)[C@H](CO)NC(=O)CNC(=O)CC[C@H](NC(=O)CCCCCCCCCCCCCCCCC(=O)O)C(=O)O)NC(=O)[C@H](CC(=O)O)NC(=O)[C@H](CC(C)C)NC(=O)[C@H](Cc1ccc(O)cc1)NC(=O)[C@H](CCCCN)NC(=O)[C@H](CO)NC(=O)[C@H](Cc1ccc(O)cc1)NC(=O)[C@H](CC(=O)O)NC(=O)[C@H](CO)NC(=O)[C@@H](NC(=O)[C@H](Cc1ccccc1)NC(=O)[C@@H](NC(=O)CNC(=O)[C@H](CCC(N)=O)NC(=O)C1(NC(=O)[C@@H](N)Cc2c[nH]cn2)CCC1)[C@@H](C)O)[C@@H](C)O)C(=O)N[C@@H](CCC(=O)O)C(=O)N[C@@H](Cc1c[nH]c2ccccc12)C(=O)N[C@@H](CC(C)C)C(=O)N[C@@H](CCC(=O)O)C(=O)N[C@@H](CO)C(=O)N[C@@H](C)C(N)=O` [Compound 7, H-H-Ac4c-QGTFTSDYSKYLD-K([17-carboxy-heptadecanoyl]-isoGlu-GSGSGG)-RAAKDFIEWLESA-NH2], the “Ratio GLP-1/Glucagon” value was determined as 8.82. Further, the EC50 (cAMP formation, CHO cells expressing human GLP-1-R, 15 min, read-out: EC50 hGLP-1R CHO-K1) was 0.97 nM.

For `CC[C@H](C)[C@H](NC(=O)[C@H](Cc1ccccc1)NC(=O)[C@H](CC(=O)O)NC(=O)[C@H](Cc1c[nH]cn1)NC(=O)[C@H](C)NC(=O)[C@H](C)NC(=O)[C@H](CCCNC(=N)N)NC(=O)[C@H](CCCCNC(=O)COCCOCCNC(=O)COCCOCCNC(=O)CC[C@H](NC(=O)CCCCCCCCCCCCCCCCC(=O)O)C(=O)O)NC(=O)[C@H](CCC(=O)O)NC(=O)[C@H](CC(C)C)NC(=O)[C@H](Cc1ccc(O)cc1)NC(=O)[C@H](CCCCN)NC(=O)[C@H](CO)NC(=O)[C@H](Cc1ccc(O)cc1)NC(=O)[C@H](CC(=O)O)NC(=O)[C@H](CO)NC(=O)[C@@H](NC(=O)[C@H](Cc1ccccc1)NC(=O)[C@@H](NC(=O)CNC(=O)[C@H](CCC(N)=O)NC(=O)C(C)(C)NC(=O)[C@@H](N)Cc1c[nH]cn1)[C@@H](C)O)[C@@H](C)O)C(=O)N[C@@H](CCC(=O)O)C(=O)N[C@@H](Cc1c[nH]c2ccccc12)C(=O)N[C@@H](CC(C)C)C(=O)N[C@@H](CCC(=O)O)C(=O)N[C@@H](CO)C(=O)N[C@@H](C)C(N)=O` [Compound 8, H-H-Aib-QGTFTSDYSKYLE-K([17-carboxy-heptadecanoyl]-isoGlu-Peg3-Peg3)-RAAHDFIEWLESA-NH2] (H-H[Aib]QGTFTSDYSKYLEK([AEEA-AEEA-γGlu-C18 diacid])RAAHDFIEWLESA-NH2), the “Ratio GLP-1/Glucagon” value is recorded as 2.58.

On to `CC[C@H](C)[C@H](NC(=O)[C@H](Cc1ccccc1)NC(=O)[C@H](CC(=O)O)NC(=O)[C@H](CCCCN)NC(=O)[C@H](C)NC(=O)[C@H](C)NC(=O)[C@H](CCCCNC(=O)CC[C@H](NC(=O)CCCCCCCCCCCCCCCCC(=O)O)C(=O)O)NC(=O)[C@H](CCC(=O)O)NC(=O)[C@H](CC(=O)O)NC(=O)[C@H](CC(C)C)NC(=O)[C@H](Cc1ccc(O)cc1)NC(=O)[C@H](CCCCN)NC(=O)[C@H](CO)NC(=O)[C@H](Cc1ccc(O)cc1)NC(=O)[C@H](CC(=O)O)NC(=O)[C@H](CO)NC(=O)[C@@H](NC(=O)[C@H](Cc1ccccc1)NC(=O)[C@@H](NC(=O)CNC(=O)[C@H](CCC(N)=O)NC(=O)C1(NC(=O)[C@@H](N)Cc2c[nH]cn2)CCC1)[C@@H](C)O)[C@@H](C)O)C(=O)N[C@@H](CCC(=O)O)C(=O)N[C@@H](Cc1c[nH]c2ccccc12)C(=O)N[C@@H](CC(C)C)C(=O)N[C@@H](CCC(=O)O)C(=O)N[C@@H](CO)C(=O)N[C@@H](C)C(N)=O` [Compound 11, H-H-Ac4c-QGTFTSDYSKYLDE-K([17-carboxy-heptadecanoyl]-isoGlu)-AAKDFIEWLESA-NH2], for which the “Ratio GLP-1/Glucagon” value came to 2.00.

With `CC[C@H](C)[C@H](NC(=O)[C@H](Cc1ccccc1)NC(=O)[C@H](CC(=O)O)NC(=O)[C@H](CCCCN)NC(=O)[C@H](C)NC(=O)[C@H](C)NC(=O)[C@H](CCCNC(=N)N)NC(=O)[C@H](CCC(=O)O)NC(=O)[C@H](CC(=O)O)NC(=O)[C@H](CC(C)C)NC(=O)[C@H](Cc1ccc(O)cc1)NC(=O)[C@H](CCCCN)NC(=O)[C@H](CO)NC(=O)[C@H](Cc1ccc(O)cc1)NC(=O)[C@H](CC(=O)O)NC(=O)[C@H](CO)NC(=O)[C@@H](NC(=O)[C@H](Cc1ccccc1)NC(=O)[C@@H](NC(=O)CNC(=O)[C@H](CCC(N)=O)NC(=O)C1(NC(=O)[C@@H](N)Cc2c[nH]cn2)CCC1)[C@@H](C)O)[C@@H](C)O)C(=O)N[C@@H](CCCCNC(=O)CNC(=O)CNC(=O)[C@H](CO)NC(=O)CNC(=O)[C@H](CO)NC(=O)CNC(=O)CC[C@H](NC(=O)CCCCCCCCCCCCCCCCC(=O)O)C(=O)O)C(=O)N[C@@H](Cc1c[nH]c2ccccc12)C(=O)N[C@@H](CC(C)C)C(=O)N[C@@H](CCC(=O)O)C(=O)N[C@@H](CO)C(=O)N[C@@H](C)C(N)=O` [Compound 13], the “Ratio GLP-1/Glucagon” value is 0.63.

Take `CC[C@H](C)[C@H](NC(=O)[C@H](Cc1ccccc1)NC(=O)[C@H](CC(=O)O)NC(=O)[C@H](CCCCN)NC(=O)[C@H](C)NC(=O)[C@H](C)NC(=O)[C@H](CCCNC(=N)N)NC(=O)[C@H](CCC(=O)O)NC(=O)[C@H](CC(=O)O)NC(=O)[C@H](CC(C)C)NC(=O)[C@H](Cc1ccc(O)cc1)NC(=O)[C@H](CCCCN)NC(=O)[C@H](CO)NC(=O)[C@H](Cc1ccc(O)cc1)NC(=O)[C@H](CC(=O)O)NC(=O)[C@H](CO)NC(=O)[C@@H](NC(=O)[C@H](Cc1ccccc1)NC(=O)[C@@H](NC(=O)CNC(=O)[C@H](CCC(N)=O)NC(=O)C1(NC(=O)[C@@H](N)Cc2c[nH]cn2)CCC1)[C@@H](C)O)[C@@H](C)O)C(=O)N[C@@H](CCC(=O)O)C(=O)N[C@@H](Cc1c[nH]c2ccccc12)C(=O)N[C@@H](CC(C)C)C(=O)N[C@@H](CCC(=O)O)C(=O)N[C@@H](CCCCNC(=O)CNC(=O)CNC(=O)[C@H](CO)NC(=O)CNC(=O)[C@H](CO)NC(=O)CNC(=O)CC[C@H](NC(=O)CCCCCCCCCCCCCCCCC(=O)O)C(=O)O)C(=O)N[C@@H](C)C(N)=O` [Compound 15]: the “Ratio GLP-1/Glucagon” value is on record as 0.65.
